Assay results as given in patent publication US10681909B2, “Herbicidal triazoles” (FMC Corporation, priority 2014, dated 2020).

Legend:
blackgrass [1] = assay: Test D postemergence; type: in vivo, Alopecurus myosuroides; settings: scale 0 to 100
From the text: (§1) Seeds of plant species selected from bluegrass (annual bluegrass, Poa annua), blackgrass (Alopecurus myosuroides), canarygrass (Phalaris minor), chickweed (common chickweed, Stellaria media), galium (catchweed bedstraw, Galium aparine), bromegrass, down (downy bromegrass, Bromus tectorum), Russian thistle (Salsola kali), field poppy (Papaver rhoeas), field violet (Viola arvensis), foxtail, green (green foxtail, Setaria viridis), deadnettle (henbit deadnettle, Lamium amplexicaule), ryegrass, Ital. (Italian ryegrass, Lolium multiflorum), kochia (Kochia scoparia), lambsquarters (Chenopodium album), oilseed rape (Brassica napus), pigweed (Amaranthus retroflexus), chamomile (scentless chamomile, Matricaria inodora), speedwell (bird's-eye speedwell, Veronica persica), barley, spring (spring barley, Hordeum vulgare), wheat, spring (spring wheat, Triticum aestivum), buckwheat, wild (wild buckwheat, Polygonum convolvulus), wild mustard (Sinapis arvensis), oat, wild (wild oat, Avena fatua), radish, wild (wild radish, Raphanus raphanistrum), […]), barley, winter (winter barley, Hordeum vulgare), and wheat, winter (winter wheat, Triticum aestivum) were planted into a silt loam soil and treated preemergence with test chemicals formulated in a non-phytotoxic solvent mixture which included a surfactant. At the same time, these species were planted in pots containing Sunshine Redi-Earth® planting medium comprising spaghnum peat moss, vermiculite, starter nutrients and dolomitic limestone and treated with postemergence applications of the test chemicals formulated in the same manner. Plants ranged in height from 2 to 18 cm (1- to 4-leaf stage). Treated plants and controls were maintained in a controlled growth environment for 14 to 21 d after which time all species were compared to controls and visually evaluated. […] A dash (-) response means no test result.

blackgrass [2] = assay: Test D preemergence; type: in vivo, Alopecurus myosuroides; settings: for Plant response rating (0 to 100), Blackgrass: 16 g ai/ha, 0 is no effect, 100 is complete control; for Plant response rating: Blackgrass: scale 0 to 100
From the text: as §1

foxtail, green = assay: Test D postemergence; type: in vivo, Setaria viridis; settings: scale 0 to 100
From the text: as §1

lambsquarters = assay: Test C preemergence; type: in vivo, Chenopodium album; settings: for Plant response rating (scale of 0 to 100 where 0 is no effect and 100 is complete control): Lambsquarters, preemergence; for Lambsquarters plant response rating (0 to 100): Preemergence, visual rating after 13 to 15 d
From the text: (§2) Seeds of plant species selected from blackgrass (Alopecurus myosuroides), ryegrass, Italian (Italian ryegrass, Lolium multiflorum), wheat (winter wheat, Triticum aestivum), galium (catchweed bedstraw, Galium aparine), corn (Zea mays), crabgrass, large (large crabgrass, Digitaria sanguinalis), foxtail, giant, (giant foxtail, Setaria faberii), johnsongrass (Sorghum halepense), lambsquarters (Chenopodium album), morningglory (Ipomoea coccinea), nutsedge, yellow (yellow nutsedge, Cyperus esculentus), pigweed (Amaranthus retroflexus), ragweed (common ragweed, Ambrosia elatior), soybean (Glycine max), barnyardgrass (Echinochloa crus-galli), oilseed rape (Brassica napus), waterhemp (common waterhemp, Amaranthus rudis), and velvetleaf (Abutilon theophrasti) were planted into a blend of loam soil and sand and treated preemergence with test chemicals formulated in a non-phytotoxic solvent mixture which included a surfactant. At the same time, plants selected from these crop and weed species and also chickweed (common chickweed, Stellaria media), oat, wild (wild oat, Avena fatua), and kochia (Kochia scoparia), were planted in pots containing Sunshine Redi-Earth® planting medium comprising spaghnum peat moss, vermiculite, starter nutrients and dolomitic limestone and treated with postemergence applications of test chemicals formulated in the same manner. Plants ranged in height from 2 to 18 cm (1- to 4-leaf stage) for postemergence treatments. […] A dash (-) response means no test result.

oilseed rape = assay: Test D postemergence; type: in vivo, Brassica napus; settings: scale 0 to 100
From the text: as §1

oat, wild = assay: Test D preemergence; type: in vivo, Avena fatua; settings: for Plant response rating (0 to 100), Oat, Wild: 16 g ai/ha, 0 is no effect, 100 is complete control; for Plant response rating: Oat, Wild: scale 0 to 100
From the text: as §1

field violet = assay: Test D postemergence; type: in vivo, Viola arvensis; settings: scale 0 to 100
From the text: as §1

wild mustard = assay: Test D preemergence; type: in vivo, Sinapis arvensis; settings: for Plant response rating (0 to 100), Mustard, Wild: 16 g ai/ha, 0 is no effect, 100 is complete control; for Plant response rating: Mustard, Wild: scale 0 to 100
From the text: as §1

corn = assay: Test C preemergence; type: in vivo, Zea mays; settings: for Plant response rating (scale of 0 to 100 where 0 is no effect and 100 is complete control): Corn, preemergence; for Corn plant response rating (0 to 100): Preemergence, visual rating after 13 to 15 d
From the text: as §2

bluegrass = assay: Test D preemergence; type: in vivo, Poa annua; settings: for Plant response rating (0 to 100), Bluegrass: 16 g ai/ha, 0 is no effect, 100 is complete control; for Plant response rating: Bluegrass: scale 0 to 100
From the text: as §1

Row | SMILES | Plant response rating: Blackgrass (blackgrass [1]; 16 g ai/ha) | Plant response rating: Blackgrass (blackgrass [1]; 31 g ai/ha) | Plant response rating: Blackgrass (blackgrass [1]; 62 g ai/ha) | Plant response rating: Blackgrass (blackgrass [1]; 125 g ai/ha) | Plant response rating (0 to 100), Blackgrass (blackgrass [2]) | Plant response rating: Blackgrass (blackgrass [2]; 31 g ai/ha) | Plant response rating: Blackgrass (blackgrass [2]; 62 g ai/ha) | Plant response rating: Blackgrass (blackgrass [2]; 125 g ai/ha) | Plant response rating: Foxtail, Green (foxtail, green; 16 g ai/ha) | Plant response rating: Foxtail, Green (foxtail, green; 31 g ai/ha) | Plant response rating: Foxtail, Green (foxtail, green; 62 g ai/ha) | Plant response rating: Foxtail, Green (foxtail, green; 125 g ai/ha) | Plant response rating (scale of 0 to 100 where 0 is no effect and 100 is complete control) (lambsquarters; 125 g ai/ha) | Plant response rating (scale of 0 to 100 where 0 is no effect and 100 is complete control) (lambsquarters; 250 g ai/ha) | Lambsquarters plant response rating (0 to 100) (lambsquarters; 31 g ai/ha) | Lambsquarters plant response rating (0 to 100) (lambsquarters; 62 g ai/ha) | Plant response rating: Oilseed Rape (oilseed rape; 16 g ai/ha) | Plant response rating: Oilseed Rape (oilseed rape; 31 g ai/ha) | Plant response rating: Oilseed Rape (oilseed rape; 62 g ai/ha) | Plant response rating: Oilseed Rape (oilseed rape; 125 g ai/ha) | further results
1 | FC(F)(F)COc1nc(-c2ccc(Cl)cc2)nn1Cc1ccnc(C(F)(F)F)c1 [Compound 31] | 45 | 65 | 70 | 80 | 35 | 40 | 60 | 75 | 70 | 80 | 80 | 85 | 100 | 98 | 90 | 100 | 80 | 85 | 90 | 100 | Plant response rating (0 to 100), Oat, Wild (oat, wild): 35; Plant response rating: Oat, Wild (oat, wild; 62 g ai/ha): 55; Plant response rating: Oat, Wild (oat, wild; 125 g ai/ha): 75; Plant response rating: Field Violet (field violet; 16 g ai/ha): 100; Plant response rating: Field Violet (field violet; 31 g ai/ha): 100; Plant response rating: Field Violet (field violet; 62 g ai/ha): 100; Plant response rating: Field Violet (field violet; 125 g ai/ha): 100; Plant response rating (0 to 100), Mustard, Wild (wild mustard): 100; Plant response rating: Mustard, Wild (wild mustard; 62 g ai/ha): 100; Plant response rating: Mustard, Wild (wild mustard; 125 g ai/ha): 100; Plant response rating (scale of 0 to 100 where 0 is no effect and 100 is complete control) (corn; 125 g ai/ha): 20; Plant response rating (scale of 0 to 100 where 0 is no effect and 100 is complete control) (corn; 250 g ai/ha): 25; Corn plant response rating (0 to 100) (corn; 31 g ai/ha): 0; Corn plant response rating (0 to 100) (corn; 62 g ai/ha): 0; Plant response rating (0 to 100), Bluegrass (bluegrass): 55; Plant response rating: Bluegrass (bluegrass; 31 g ai/ha): 65; Plant response rating: Bluegrass (bluegrass; 62 g ai/ha): 95; Plant response rating: Bluegrass (bluegrass; 125 g ai/ha): 100
2 | Fc1ccc(-c2nc(OCC(F)(F)F)n(Cc3ccnc(C(F)(F)F)c3)n2)cc1 [Compound 30] | 45 | 60 | 65 | 75 | 30 | 45 | 60 | 70 | 55 | 75 | 85 | 90 | 95 | 98 | 98 | 98 | 90 | 75 | 100 | 100 | Plant response rating (0 to 100), Oat, Wild (oat, wild): 45; Plant response rating: Oat, Wild (oat, wild; 62 g ai/ha): 70; Plant response rating: Oat, Wild (oat, wild; 125 g ai/ha): 80; Plant response rating: Field Violet (field violet; 16 g ai/ha): 75; Plant response rating: Field Violet (field violet; 31 g ai/ha): 98; Plant response rating: Field Violet (field violet; 62 g ai/ha): 95; Plant response rating: Field Violet (field violet; 125 g ai/ha): 100; Plant response rating (0 to 100), Mustard, Wild (wild mustard): 90; Plant response rating: Mustard, Wild (wild mustard; 62 g ai/ha): 100; Plant response rating: Mustard, Wild (wild mustard; 125 g ai/ha): 100; Plant response rating (scale of 0 to 100 where 0 is no effect and 100 is complete control) (corn; 125 g ai/ha): 30; Plant response rating (scale of 0 to 100 where 0 is no effect and 100 is complete control) (corn; 250 g ai/ha): 35; Corn plant response rating (0 to 100) (corn; 31 g ai/ha): 5; Corn plant response rating (0 to 100) (corn; 62 g ai/ha): 15; Plant response rating (0 to 100), Bluegrass (bluegrass): 75; Plant response rating: Bluegrass (bluegrass; 31 g ai/ha): 75; Plant response rating: Bluegrass (bluegrass; 62 g ai/ha): 100; Plant response rating: Bluegrass (bluegrass; 125 g ai/ha): 100
3 | FC(F)(F)COc1nc(-c2ccccc2)nn1Cc1ccnc(C(F)(F)F)c1 [Compound 24] | 25 | 35 | 45 | 65 | 20 | 45 | 50 | 65 | 15 | 25 | 65 | 65 | 85 | 85 | 60 | 75 | 65 | 75 | 80 | 85 | Plant response rating (0 to 100), Oat, Wild (oat, wild): 30; Plant response rating: Oat, Wild (oat, wild; 62 g ai/ha): 30; Plant response rating: Oat, Wild (oat, wild; 125 g ai/ha): 35; Plant response rating: Field Violet (field violet; 16 g ai/ha): 70; Plant response rating: Field Violet (field violet; 31 g ai/ha): 75; Plant response rating: Field Violet (field violet; 62 g ai/ha): 80; Plant response rating: Field Violet (field violet; 125 g ai/ha): 90; Plant response rating (0 to 100), Mustard, Wild (wild mustard): 65; Plant response rating: Mustard, Wild (wild mustard; 62 g ai/ha): 100; Plant response rating: Mustard, Wild (wild mustard; 125 g ai/ha): 100; Plant response rating (scale of 0 to 100 where 0 is no effect and 100 is complete control) (corn; 125 g ai/ha): 25; Plant response rating (scale of 0 to 100 where 0 is no effect and 100 is complete control) (corn; 250 g ai/ha): 40; Corn plant response rating (0 to 100) (corn; 31 g ai/ha): 0; Corn plant response rating (0 to 100) (corn; 62 g ai/ha): 10; Plant response rating (0 to 100), Bluegrass (bluegrass): 20; Plant response rating: Bluegrass (bluegrass; 31 g ai/ha): 75; Plant response rating: Bluegrass (bluegrass; 62 g ai/ha): 80; Plant response rating: Bluegrass (bluegrass; 125 g ai/ha): 98
